{"source": "patent US8507488B2", "about": "“Fused nitrogen containing heterocycles and compositions thereof as kinase inhibitors” (IRM LLC, priority 2008, dated 2013)", "key": {"[1]": {"molecular_target": "T1, Tel-TrkB (Homo sapiens, UniProt Q16620)", "T1 construct": "dimerization domain of Tel (ETV6) transcription factor (fusion partner, human ETV6 P41212); expressed in transfected cells; host or cells: luciferase expressing Ba/F3 murine hematopoietic progenitor cells; the other entry of the earlier key: ETV6 (P41212, Transcription factor ETV6)", "T1 sequence (Q16620 538-822 limits assumed)": "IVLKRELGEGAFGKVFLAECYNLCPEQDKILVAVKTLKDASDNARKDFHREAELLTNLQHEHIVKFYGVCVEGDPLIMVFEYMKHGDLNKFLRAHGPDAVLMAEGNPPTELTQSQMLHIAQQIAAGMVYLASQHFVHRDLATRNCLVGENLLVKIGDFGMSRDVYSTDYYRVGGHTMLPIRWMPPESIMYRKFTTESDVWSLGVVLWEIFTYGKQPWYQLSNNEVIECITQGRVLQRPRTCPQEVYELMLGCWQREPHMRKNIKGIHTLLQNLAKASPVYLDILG", "assay": "Inhibition of proliferation of Ba/F3 cells expressing Tel-TrkB (BaF3/Tel-TrkB)", "format": "cell-based", "conditions": "Ba/F3 Tel-TrkB cells; read-out: Ba/F3 Tel-TrkB IC 50", "summary_of_the_method": "(§1)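 Luciferase-expressing murine Ba/F3 cells transformed with human Tel-TrkA or Tel-TrkB, plated at 2000 cells/well in IL3-free RPMI/10% FBS. Exposed to 12 concentrations of 3-fold serially diluted compound for 48 hours at 37° C, 5% CO2. Bright Glo luminescence read-out, with IC50 from linear regression of percent inhibition.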"}, "[2]": {"system": "parental BaF3 cells", "assay": "Proliferation of parental (untransformed) Ba/F3 cells maintained with IL3", "format": "cell-based, murine", "conditions": "Mus musculus, BaF3, parental Ba/F3 cells; read-out: Ba/F3 IC 50", "summary_of_the_method": "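Untransformed murine Ba/F3 cells kept in RPMI/10% FCS with 5 ng/ml murine IL3, plated at 2000 cells/well and exposed to 12 concentrations of compound for 48 h at 37 °C. Viability read by Bright-Glo luciferase luminescence; IC50 from linear regression of % inhibition.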"}, "[3]": {"molecular_target": "T2, full length rTrkA and mNGF (Rattus norvegicus, UniProt P35739)", "T2 construct": "co-expressing full length rTrkA and mNGF; expressed in transfected cells; host or cells: Ba/F3 cells", "T2 sequence (P35739 33-799)": "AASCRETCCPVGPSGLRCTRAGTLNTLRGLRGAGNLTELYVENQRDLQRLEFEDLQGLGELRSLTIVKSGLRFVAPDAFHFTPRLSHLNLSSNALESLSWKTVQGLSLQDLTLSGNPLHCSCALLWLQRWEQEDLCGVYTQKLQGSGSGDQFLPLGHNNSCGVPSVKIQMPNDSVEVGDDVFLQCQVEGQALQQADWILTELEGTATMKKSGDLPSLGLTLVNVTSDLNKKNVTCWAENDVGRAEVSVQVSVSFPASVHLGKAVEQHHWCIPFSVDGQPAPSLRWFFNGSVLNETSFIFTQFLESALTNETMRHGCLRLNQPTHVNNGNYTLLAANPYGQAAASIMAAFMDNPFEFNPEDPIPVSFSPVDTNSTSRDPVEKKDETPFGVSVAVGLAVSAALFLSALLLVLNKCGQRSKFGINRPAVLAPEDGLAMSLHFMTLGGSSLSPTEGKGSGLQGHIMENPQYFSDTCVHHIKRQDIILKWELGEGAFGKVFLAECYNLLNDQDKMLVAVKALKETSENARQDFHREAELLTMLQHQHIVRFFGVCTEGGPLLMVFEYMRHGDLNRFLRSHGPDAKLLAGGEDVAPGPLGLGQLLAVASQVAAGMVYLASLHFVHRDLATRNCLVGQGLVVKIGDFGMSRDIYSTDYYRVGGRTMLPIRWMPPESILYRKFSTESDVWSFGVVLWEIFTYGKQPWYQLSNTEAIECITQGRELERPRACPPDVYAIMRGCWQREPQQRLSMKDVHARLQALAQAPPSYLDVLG", "T2 sequence (P01139 122-241 partner)": "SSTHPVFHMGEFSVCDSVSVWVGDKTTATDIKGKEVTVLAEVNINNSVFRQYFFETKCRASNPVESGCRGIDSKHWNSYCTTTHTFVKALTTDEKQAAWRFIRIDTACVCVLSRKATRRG", "assay": "Inhibition of proliferation of Ba/F3 cells co-expressing full length rTrkA and mNGF (BaF3/TrkA-NFG)", "format": "cell-based", "conditions": "BaF3 TRKA-NGF cells, CTG readout"}, "[4]": {"system": "KM12 luc", "assay": "KM12 luc cell proliferation assay (Table 8)", "format": "cell-based", "conditions": "KM12 luc cells; read-out: KM12 luc IC 50"}, "[5]": {"molecular_target": "T3, Tel-TrkA (Homo sapiens, UniProt P04629)", "T3 construct": "dimerization domain of Tel (ETV6) transcription factor (fusion partner, human ETV6 P41212); expressed in transfected cells; host or cells: luciferase expressing Ba/F3 murine hematopoietic progenitor cells; the other entry of the earlier key: ETV6 (P41212, Transcription factor ETV6)", "T3 sequence (P04629 510-796 limits assumed)": "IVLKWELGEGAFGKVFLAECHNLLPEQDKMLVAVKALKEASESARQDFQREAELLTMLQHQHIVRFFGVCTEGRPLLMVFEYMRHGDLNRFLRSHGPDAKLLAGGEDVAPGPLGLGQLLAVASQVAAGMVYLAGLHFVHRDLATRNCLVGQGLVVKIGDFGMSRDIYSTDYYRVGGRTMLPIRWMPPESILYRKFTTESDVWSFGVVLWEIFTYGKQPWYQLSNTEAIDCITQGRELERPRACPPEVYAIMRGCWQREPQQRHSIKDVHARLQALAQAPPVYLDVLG", "assay": "Inhibition of proliferation of Ba/F3 cells expressing Tel-TrkA (BaF3/Tel-TrkA, luciferase/Bright Glo readout)", "format": "cell-based", "conditions": "read-out: Ba/F3 Tel-TrkA IC 50", "summary_of_the_method": "as §1"}, "[6]": {"molecular_target": "T4, Tel-TrkC (Homo sapiens, UniProt Q16288)", "T4 construct": "The cells also express luciferase as the viability read-out; it is not fused to the kinase; P41212 (Transcription factor ETV6)", "T4 sequence (Q16288 whole entry, the tested form may be a part)": "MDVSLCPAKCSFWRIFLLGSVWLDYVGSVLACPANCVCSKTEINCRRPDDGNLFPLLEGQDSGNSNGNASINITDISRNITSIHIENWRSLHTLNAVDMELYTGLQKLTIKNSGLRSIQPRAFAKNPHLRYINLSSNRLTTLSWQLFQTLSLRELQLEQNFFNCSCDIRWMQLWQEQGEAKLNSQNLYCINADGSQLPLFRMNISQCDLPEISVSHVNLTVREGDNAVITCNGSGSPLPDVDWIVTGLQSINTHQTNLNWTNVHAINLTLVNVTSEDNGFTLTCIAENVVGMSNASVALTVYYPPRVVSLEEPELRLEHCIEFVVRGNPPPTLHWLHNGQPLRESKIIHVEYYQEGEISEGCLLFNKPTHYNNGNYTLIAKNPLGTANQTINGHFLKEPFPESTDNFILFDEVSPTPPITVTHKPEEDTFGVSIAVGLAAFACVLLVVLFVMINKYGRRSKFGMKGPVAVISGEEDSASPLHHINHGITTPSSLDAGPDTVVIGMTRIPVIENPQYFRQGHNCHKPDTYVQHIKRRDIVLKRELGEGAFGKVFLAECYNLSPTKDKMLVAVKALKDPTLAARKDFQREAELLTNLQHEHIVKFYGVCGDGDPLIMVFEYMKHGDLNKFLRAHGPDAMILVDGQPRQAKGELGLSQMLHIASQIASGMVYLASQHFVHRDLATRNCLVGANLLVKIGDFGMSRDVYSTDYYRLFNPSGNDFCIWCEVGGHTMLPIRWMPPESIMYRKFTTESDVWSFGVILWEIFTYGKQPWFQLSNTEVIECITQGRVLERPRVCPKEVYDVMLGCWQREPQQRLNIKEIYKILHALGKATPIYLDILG", "assay": "Inhibition of proliferation of Ba/F3 cells expressing Tel-TrkC (BaF3/Tel-TrkC)", "format": "cell-based", "conditions": "read-out: Ba/F3 Tel-TrkC IC 50", "procedure": "Test compounds were dissolved in DMSO (10 mM) and transferred into 1.4 mL flat bottom or V-shaped Matrix tubes carrying a unique 2D matrix chip by individual compound hubs. The numbers of these chips were distinctively linked to the individual compound identification numbers. The stock solutions were stored at −20° C. if not used immediately. For the test procedure the vials were defrosted and identified by a scanner whereby a working sheet is generated that guides the subsequent working steps.\nCompound dilutions were made in 384 well plates. This format enabled the assay of maximally 28 individual test compounds at 12 concentrations (single points) including 2 reference compounds. The dilution protocol included the production of pre-dilution plates, master plates and assay plates: • Compound plates: 30 μL of individual compound (10 mM) DMSO solution including standard compound were transferred into columns 1 and 13 of a 384 well plate. 20 μL of DMSO were added to the rest of the wells and the compounds were serially diluted (1:3) by transferring 10 μL from a well in column 1 or 13 to the next well in column 2 or 14 respectively and successively with the help of a Minitrack robot. • Assay plates: Identical assay plates were then prepared by adding […] each of compound dilutions of the compound plates into 384-well “assay plates”. In the following the compounds were mixed with 50 μL of assays components (cells or enzyme) and tested for their inhibitory activity.\nCompounds of Formula (I) were tested for their antiproliferative effect on Ba/F3 cells expressing either Tel-TrkA, Tel-TrkB or Tel-TrkC and an additional panel of 34 selected diverse kinases activated by fusion to the dimerizing partners Bcr or Tel (Abl, A1K, BMX, EphA3, EphB2, FGFR2, FGFR3, FGFR4, FGR, FLT1, FLT3, FLT4, FMS, IGF1R, InsR, JAK1, JAK2, JAK3, KDR, Kit, Lck, Lyn, MER, MET, PDGFRb, RET, RON, Ros-1, Src, Aurora, TIE2, TYK2, Tie1, ZAP70). The antiproliferative effect of these compounds on the different cell lines and on the non transformed cells were tested at 12 different concentrations of 3-fold serially diluted compounds in 384 well plates as described above (in media lacking IL3). The IC50 values of the compounds the different cell lines were determined from dose response curves.\nThe cell line used is the luciferase expressing Ba/F3 murine hematopoietic progenitor cell line transformed with human Tel-TrkA, Tel-TrkB or Tel-TrkC cDNAs (Ba/F3 EN A/B/C). These cells maintained in RPMI/10% fetal bovine serum (RPMI/FCS) supplemented with penicillin 50 mg/mL, streptomycin 50 mg/mL and L-glutamine […]. Untransformed Ba/F3 cells were similarly maintained with the addition 5 ng/ml of murine recombinant IL3. 50 μl of a Ba/F3 or Ba/F3 EN A/B/C cell suspension were plated in Greiner 384 well microplates (white)) at a density of 2000 cells per well. 50 nl of serially diluted test compound (10-0.0001 mM in DMSO solution) is added to each well. The cells were incubated for 48 hours at 37° C., 5% CO2. 25 μl of Bright Glo® (Promega) luciferase substrate is added to each well. The emited luminiscence is quantified using the ACQUEST™ luminescence system (Molecular Devices). IC50 values were calculated by linear regression analysis of the percentage inhibition of each compound at 12 concentrations."}}}
{"smiles": "N#Cc1cccc(-n2cnc3ccc(N4CCSC4c4cc(F)ccc4F)nc32)c1", "note": "(stereo not drawn) [Table 1-Compound 3]", "values": [{"measurement": "IC50", "setting": "[1]", "result": 0.022, "unit": "µM"}, {"measurement": "IC50", "setting": "[2]", "result": "> 10", "unit": "µM"}, {"measurement": "BaF3 TRKA-NGF CTG IC 50", "setting": "[3]", "result": 0.45, "unit": "µM"}, {"measurement": "IC50", "setting": "[4]", "result": 0.037, "unit": "µM"}, {"measurement": "IC50", "setting": "[5]", "result": 0.028, "unit": "µM"}, {"measurement": "IC50", "setting": "[6]", "result": 0.018, "unit": "µM"}]}
{"smiles": "N#Cc1cccc(-n2cnc3ccc(N4C(=O)CSC4c4cc(F)ccc4F)nc32)c1", "note": "(stereo not drawn) [Table 1-Compound 5]", "values": [{"measurement": "IC50", "setting": "[1]", "result": 4.17, "unit": "µM"}, {"measurement": "IC50", "setting": "[2]", "result": "> 10", "unit": "µM"}, {"measurement": "BaF3 TRKA-NGF CTG IC 50", "setting": "[3]", "result": 3.58, "unit": "µM"}, {"measurement": "IC50", "setting": "[4]", "result": 2.29, "unit": "µM"}, {"measurement": "IC50", "setting": "[5]", "result": 5.67, "unit": "µM"}, {"measurement": "IC50", "setting": "[6]", "result": 2.61, "unit": "µM"}]}
{"smiles": "Cc1ccc(C)c(C2CCCN2c2ccc3ncc(-c4cccc(C(=O)O)n4)n3n2)c1", "note": "(stereo not drawn) [Table 3-Compound 1]", "values": [{"measurement": "IC50", "setting": "[1]", "result": 0.47, "unit": "µM"}, {"measurement": "IC50", "setting": "[2]", "result": "> 10", "unit": "µM"}, {"measurement": "BaF3 TRKA-NGF CTG IC 50", "setting": "[3]", "result": 1.73, "unit": "µM"}, {"measurement": "IC50", "setting": "[4]", "result": 0.19, "unit": "µM"}, {"measurement": "IC50", "setting": "[5]", "result": 2.31, "unit": "µM"}, {"measurement": "IC50", "setting": "[6]", "result": 0.24, "unit": "µM"}]}
{"smiles": "Fc1cccc(C2CCCN2c2ccc3ncc(-c4csc(N5CCCCC5)n4)n3n2)c1", "note": "(stereo not drawn) [Table 3-Compound 6]", "values": [{"measurement": "IC50", "setting": "[1]", "result": 0.76, "unit": "µM"}, {"measurement": "IC50", "setting": "[2]", "result": "> 10", "unit": "µM"}, {"measurement": "BaF3 TRKA-NGF CTG IC 50", "setting": "[3]", "result": 0.54, "unit": "µM"}, {"measurement": "IC50", "setting": "[4]", "result": 0.38, "unit": "µM"}, {"measurement": "IC50", "setting": "[5]", "result": 0.36, "unit": "µM"}, {"measurement": "IC50", "setting": "[6]", "result": 0.18, "unit": "µM"}]}
{"smiles": "CN1CCN(c2cnc(-c3cnc4ccc(N5CCCC5c5cccc(F)c5)nn34)cn2)CC1", "note": "(stereo not drawn) [Table 3-Compound 7]", "values": [{"measurement": "IC50", "setting": "[1]", "result": 0.052, "unit": "µM"}, {"measurement": "IC50", "setting": "[2]", "result": 5.03, "unit": "µM"}, {"measurement": "BaF3 TRKA-NGF CTG IC 50", "setting": "[3]", "result": 0.027, "unit": "µM"}, {"measurement": "IC50", "setting": "[4]", "result": 0.023, "unit": "µM"}, {"measurement": "IC50", "setting": "[5]", "result": 0.035, "unit": "µM"}, {"measurement": "IC50", "setting": "[6]", "result": 0.02, "unit": "µM"}]}
{"smiles": "Fc1cccc(C2CCCN2c2ccc3ncc(-c4cncc(Cl)n4)n3n2)c1", "note": "(stereo not drawn) [Table 3-Compound 10]", "values": [{"measurement": "IC50", "setting": "[1]", "result": 0.1, "unit": "µM"}, {"measurement": "IC50", "setting": "[2]", "result": "> 10", "unit": "µM"}, {"measurement": "BaF3 TRKA-NGF CTG IC 50", "setting": "[3]", "result": 0.18, "unit": "µM"}, {"measurement": "IC50", "setting": "[4]", "result": 0.094, "unit": "µM"}, {"measurement": "IC50", "setting": "[5]", "result": 0.2, "unit": "µM"}, {"measurement": "IC50", "setting": "[6]", "result": 0.04, "unit": "µM"}]}
{"smiles": "Fc1cccc(C2CCCN2c2ccc3ncc(-c4cncc(-n5ccnc5)n4)n3n2)c1", "note": "(stereo not drawn) [Table 3-Compound 11]", "values": [{"measurement": "IC50", "setting": "[1]", "result": 0.056, "unit": "µM"}, {"measurement": "IC50", "setting": "[2]", "result": "> 10", "unit": "µM"}, {"measurement": "BaF3 TRKA-NGF CTG IC 50", "setting": "[3]", "result": 0.074, "unit": "µM"}, {"measurement": "IC50", "setting": "[4]", "result": 0.036, "unit": "µM"}, {"measurement": "IC50", "setting": "[5]", "result": 0.087, "unit": "µM"}, {"measurement": "IC50", "setting": "[6]", "result": 0.017, "unit": "µM"}]}
{"smiles": "Fc1cccc(C2CCCN2c2ccc3ncc(-c4ccc5[nH]ccc5c4)n3n2)c1", "note": "(stereo not drawn) [Table 3-Compound 18]", "values": [{"measurement": "IC50", "setting": "[1]", "result": 0.01, "unit": "µM"}, {"measurement": "IC50", "setting": "[2]", "result": 7.23, "unit": "µM"}, {"measurement": "BaF3 TRKA-NGF CTG IC 50", "setting": "[3]", "result": 0.020, "unit": "µM"}, {"measurement": "IC50", "setting": "[4]", "result": 0.024, "unit": "µM"}, {"measurement": "IC50", "setting": "[5]", "result": 0.013, "unit": "µM"}, {"measurement": "IC50", "setting": "[6]", "result": 0.0014, "unit": "µM"}]}
{"smiles": "N#Cc1cccc(-c2cnc3ccc(N4CCC(=O)N4c4cccc(F)c4)nn23)c1", "note": "[Table 3-Compound 34]", "values": [{"measurement": "IC50", "setting": "[1]", "result": 0.4, "unit": "µM"}, {"measurement": "IC50", "setting": "[2]", "result": "> 10", "unit": "µM"}, {"measurement": "BaF3 TRKA-NGF CTG IC 50", "setting": "[3]", "result": 0.50, "unit": "µM"}, {"measurement": "IC50", "setting": "[4]", "result": 0.01, "unit": "µM"}, {"measurement": "IC50", "setting": "[5]", "result": 1.2, "unit": "µM"}, {"measurement": "IC50", "setting": "[6]", "result": 0.13, "unit": "µM"}]}
{"smiles": "C[C@H]1CN(c2ccc3ncc(-c4cccc(C#N)c4)n3n2)[C@H](c2ccccc2)C1(F)F", "note": "[Table 3-Compound 52]", "values": [{"measurement": "IC50", "setting": "[1]", "result": 0.0077, "unit": "µM"}, {"measurement": "IC50", "setting": "[2]", "result": "> 10", "unit": "µM"}, {"measurement": "BaF3 TRKA-NGF CTG IC 50", "setting": "[3]", "result": 0.022, "unit": "µM"}, {"measurement": "IC50", "setting": "[4]", "result": 0.0065, "unit": "µM"}, {"measurement": "IC50", "setting": "[5]", "result": 0.012, "unit": "µM"}, {"measurement": "IC50", "setting": "[6]", "result": 0.004, "unit": "µM"}]}
